Experimental data: ChEMBL document CHEMBL1201862, “PubChem BioAssay data set” (2004)
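The compound was tested at five concentrations on cells cultured in 96-well plates, with a 48-hour exposure period. GI50: concentration for 50% inhibition of growth.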 Activity calls are given as the source filed them. Cut-off read from the data, not from the text of the source: active = GI50 up to about 1.1 µM and inactive = higher.

What was measured:
Assay in all cases: growth of human tumour cells (NCI), 48 h
786-0 = test system: 786-0
A498 = test system: A498
A549 = test system: A549
ACHN = test system: ACHN
BT-549 = test system: BT-549
CAKI-1 = test system: CAKI-1
CCRF-CEM = test system: CCRF-CEM
COLO 205 = test system: COLO 205
DU-145 = test system: DU-145
EKVX = test system: EKVX
HCT-116 = test system: HCT-116
HCT-15 = test system: HCT-15
HL-60 = test system: HL-60
HOP-62 = test system: HOP-62
HOP-92 = test system: HOP-92
HT-29 = test system: HT-29
Hs-578T = test system: Hs-578T
IGROV-1 = test system: IGROV-1
K562 = test system: K562
KM12 = test system: KM12
LOX IMVI = test system: LOX IMVI
M14 = test system: M14
MCF7 = test system: MCF7
MDA-MB-231 = test system: MDA-MB-231
MDA-MB-435 = test system: MDA-MB-435
MDA-N = test system: MDA-N
MOLT-4 = test system: MOLT-4
Malme-3M = test system: Malme-3M
NCI-H226 = test system: NCI-H226
NCI-H23 = test system: NCI-H23
NCI-H460 = test system: NCI-H460
NCI-H522 = test system: NCI-H522
NCI/ADR-RES = test system: NCI/ADR-RES
OVCAR-3 = test system: OVCAR-3
OVCAR-4 = test system: OVCAR-4
OVCAR-5 = test system: OVCAR-5
OVCAR-8 = test system: OVCAR-8
PC-3 = test system: PC-3
RPMI-8226 = test system: RPMI-8226
RXF 393 = test system: RXF 393
SF-268 = test system: SF-268
SF-295 = test system: SF-295
SF-539 = test system: SF-539
SK-MEL-28 = test system: SK-MEL-28
SK-MEL-2 = test system: SK-MEL-2
SK-MEL-5 = test system: SK-MEL-5
SK-OV-3 = test system: SK-OV-3
SN12C = test system: SN12C
SNB-19 = test system: SNB-19
SNB-75 = test system: SNB-75
SR = test system: SR
SW-620 = test system: SW-620
T47D = test system: T47D
TK-10 = test system: TK-10
U-251 = test system: U-251
UACC-257 = test system: UACC-257
UACC-62 = test system: UACC-62
UO-31 = test system: UO-31

With Nc1nc(=O)c2c([nH]1)NCC(CCNc1ccc(C(=O)O)cc1)N2 (stereo not drawn) the GI50 (786-0) was > 100 µM (inactive), the GI50 (A498) was > 100 µM (inactive) and the GI50 (A549) was > 100 µM (inactive). For the same compound, the GI50 (ACHN) was > 100 µM (inactive), the GI50 (BT-549) was > 100 µM (inactive) and the GI50 (CAKI-1) was > 100 µM (inactive). The GI50 (CCRF-CEM) was > 100 µM (inactive), the GI50 (COLO 205) was > 100 µM (inactive) and the GI50 (DU-145) was > 100 µM (inactive). The GI50 (EKVX) was > 100 µM (inactive), the GI50 (HCT-116) was > 100 µM (inactive) and the GI50 (HCT-15) was over 100 µM. For the same compound, the GI50 (HL-60) was 78 µM (inactive), the GI50 (HOP-62) was > 100 µM (inactive) and the GI50 (HOP-92) was > 100 µM (inactive). The GI50 (HT-29) was > 100 µM (inactive), the GI50 (Hs-578T) was > 100 µM (inactive) and the GI50 (IGROV-1) was > 100 µM (inactive). For the same compound, the GI50 (K562) was > 100 µM (inactive), the GI50 (KM12) was > 100 µM (inactive) and the GI50 (LOX IMVI) was > 100 µM (inactive). For the same compound, the GI50 (M14) was > 100 µM (inactive), the GI50 (MCF7) was > 100 µM (inactive) and the GI50 (MDA-MB-231) was > 100 µM (inactive). The GI50 (MDA-MB-435) was > 100 µM (inactive), the GI50 (MDA-N) was > 100 µM (inactive) and the GI50 (MOLT-4) was > 100 µM (inactive). For the same compound, the GI50 (Malme-3M) was > 100 µM (inactive), the GI50 (NCI-H226) was > 100 µM (inactive) and the GI50 (NCI-H23) was > 100 µM (inactive). For the same compound, the GI50 (NCI-H460) was > 100 µM (inactive), the GI50 (NCI-H522) was > 100 µM (inactive) and the GI50 (NCI/ADR-RES) was > 100 µM (inactive). The GI50 (OVCAR-3) was > 100 µM (inactive), the GI50 (OVCAR-4) was > 100 µM (inactive) and the GI50 (OVCAR-5) was > 100 µM (inactive). For the same compound, the GI50 (OVCAR-8) was > 100 µM (inactive), the GI50 (PC-3) was > 100 µM (inactive) and the GI50 (RPMI-8226) was > 100 µM (inactive). For the same compound, the GI50 (RXF 393) was > 100 µM (inactive), the GI50 (SF-268) was > 100 µM (inactive) and the GI50 (SF-295) was > 100 µM (inactive). For the same compound, the GI50 (SF-539) was > 100 µM (inactive), the GI50 (SK-MEL-28) was > 100 µM (inactive) and the GI50 (SK-MEL-2) was > 100 µM (inactive). For the same compound, the GI50 (SK-MEL-5) was > 100 µM (inactive), the GI50 (SK-OV-3) was > 100 µM (inactive) and the GI50 (SN12C) was > 100 µM (inactive). The GI50 (SNB-19) was > 100 µM (inactive), the GI50 (SNB-75) was > 100 µM (inactive) and the GI50 (SR) was > 100 µM (inactive). For the same compound, the GI50 (SW-620) was > 100 µM (inactive), the GI50 (T47D) was > 100 µM (inactive) and the GI50 (TK-10) was > 100 µM (inactive). For the same compound, the GI50 (U-251) was > 100 µM (inactive), the GI50 (UACC-257) was > 100 µM (inactive) and the GI50 (UACC-62) was > 100 µM (inactive). For the same compound, the GI50 (UO-31) was > 100 µM (inactive).
